Laboratory results as given in publication PMC11237012, “Synthesis and preliminary evaluation of novel PET probes for GSK-3 imaging” (Scientific Reports, 2024).
“And” between values parts separate entries of the source, which are not always exact repeats. Equal entries are not always repeated. Structures can show the parent of a compound that is named as a salt.

Experiments:
GSK-3β = biological target: GSK-3β; parameters: method as in PMID 33840834, PMID 35295885, PMID 34423266; conditions: cited from earlier work
[1] = parameters: method as in PMID 33840834, PMID 35295885, PMID 34423266; conditions: 2 min post injection; Sprague Dawley rats; cited from earlier work
[2] = In vitro parallel artificial membrane permeability assay (PAMPA), blood–brain barrier permeability; conditions: for Papp: PAMPA
From the text: To evaluate the blood–brain barrier permeability and binding affinity of the developed PET probes[^18F]2 and [^18F]6, their respective nonradioactive versions were used. For blood–brain barrier permeability evaluation, we applied in vitro parallel artificial membrane permeability assay (PAMPA) and evaluated binding affinity via an inhibition assay to determine the IC50 value, as described in method section. We further measured the stability of both PET probes, [^18F]2 and [^18F]6, using radio thin layer chromatography (radio-TLC) over time, as also described in the method section. […] The blood–brain permeability was expressed through the permeability coefficient, P (10^–6 cm/s) and -logPe.

[3] = parameters: method as in PMID 33492962, doi:10.1002/ejoc.202201031; conditions: cited from earlier work
[4] = parameters: method as in PMID 33492962, doi:10.1002/ejoc.202201031; conditions: FVB/NJ mice; cited from earlier work
human GSK-3β = biological target: T1, human GSK-3β (Homo sapiens, UniProt P49841); assay: GSK-3β kinase inhibition assay (ADP-Glo); assay type: biochemical
T1 construct: purchased Promega Corporation, Madison, WI
From the text: (§1) Phosphorylation of glycogen synthase kinase substrate was quantified using a luminescent ADP-Glo™ Kinase assay system (Promega Corporation, Madison, WI).

human GSK-3α = biological target: T2, human GSK-3α (Homo sapiens, UniProt P49840); assay: GSK-3α kinase inhibition assay (ADP-Glo); assay type: biochemical
T2 construct: purchased Promega Corporation, Madison, WI
From the text: as §1

[5] = Radiochemical stability in human serum (rad-TLC); assay type: in vitro ADME; conditions: 37 °C
Protocol: (§2) The stability of PET probes [^18F]2 and [^18F]6 was measured in isotonic NaCl solution (0.9% NaCl) and mouse and human serums at 37 °C for up to 120 min by rad-TLC at 0 min, 30 min, 60 min and 120 min post incubation. The results obtained are presented in Fig. 5 and SI-Figs. S10–S15, SI-Table S1. […] The plausible explanation of the instability of [^18F]6 could be attributed to the covalent interaction of [^18F]6’s SO2F group with primary amines of amino acid residues present in the protein rich mouse and human serums. In fact, in an unrelated study, Zhao et al. reported formation of sulfonamide bond between sulfuryl fluoride and primary amine of conserved lysine residues of different kinases. […] Based on 2’s favorable blood–brain barrier permeability, nanomolar binding affinity and PET probe [^18F]2’s excellent stability in both mouse and human serums, further in vivo evaluations were performed only with PET probe [^18F]2.
(§3) Stability of [^18F]2 and [^18F]6 was assessed in isotonic NaCl solution and human and mouse serums. To perform this stability assay, 100 µL of [^18F]2 (~ 37.0 MBq) or 100 µL of [^18F]6 (~ 37.0 MBq) as in final formulation was added to 100 µL of human serum or mouse serum in a microcentrifuge tube. The resultant mixture was incubated at 37 °C for 120 min. To assess the radiochemical stability of the probes, a small aliquot (~ 0.5 µL) was taken out from the mixture in triplicate at 0 min, 30 min, 60 min and 120 min during incubation, and analyzed on a rad-TLC using 0.5:9.5 methanol: chloroform as a mobile phase using i-TLC to estimate the stability of [^18F]2 or [^18F]6 at different time points post-incubation. After Stability preparative processes initial i-TLC development was considered as 0 min.

[6] = Radiochemical stability in mouse serum (rad-TLC); assay type: in vitro ADME; conditions: 37 °C
Protocol: as §2, §3

[7] = Radiochemical stability in isotonic NaCl solution (rad-TLC); assay type: physicochemical; conditions: 37 °C
Protocol: as §2, §3

[8] = pH 7.4, Permeability coefficient, P, Average ± SD

T2 sequence (P49840 whole entry): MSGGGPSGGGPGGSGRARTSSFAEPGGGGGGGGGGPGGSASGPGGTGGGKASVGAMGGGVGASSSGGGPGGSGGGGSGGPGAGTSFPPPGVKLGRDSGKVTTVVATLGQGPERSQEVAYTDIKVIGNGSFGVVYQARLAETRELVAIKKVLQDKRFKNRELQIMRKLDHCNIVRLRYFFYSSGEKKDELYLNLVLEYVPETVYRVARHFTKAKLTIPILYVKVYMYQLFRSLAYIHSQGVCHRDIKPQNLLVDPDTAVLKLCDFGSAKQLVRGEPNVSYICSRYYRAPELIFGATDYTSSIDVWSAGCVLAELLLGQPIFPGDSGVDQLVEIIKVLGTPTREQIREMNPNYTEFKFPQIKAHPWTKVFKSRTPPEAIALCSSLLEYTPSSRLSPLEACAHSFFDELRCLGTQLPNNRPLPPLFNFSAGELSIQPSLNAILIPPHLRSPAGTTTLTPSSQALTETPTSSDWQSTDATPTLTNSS
T1 sequence (P49841 whole entry): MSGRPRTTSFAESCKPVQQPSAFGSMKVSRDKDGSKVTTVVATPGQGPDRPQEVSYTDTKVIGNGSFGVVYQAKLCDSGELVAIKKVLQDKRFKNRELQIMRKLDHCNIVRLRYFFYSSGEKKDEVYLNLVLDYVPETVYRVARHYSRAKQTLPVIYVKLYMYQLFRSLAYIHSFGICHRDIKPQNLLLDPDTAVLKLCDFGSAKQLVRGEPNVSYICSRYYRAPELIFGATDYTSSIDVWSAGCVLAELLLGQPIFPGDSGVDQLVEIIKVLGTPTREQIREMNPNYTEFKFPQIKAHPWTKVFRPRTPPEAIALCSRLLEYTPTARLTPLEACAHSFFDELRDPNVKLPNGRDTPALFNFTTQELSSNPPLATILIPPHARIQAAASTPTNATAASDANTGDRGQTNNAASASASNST

SMILES: COc1ccc(-c2ocnc2C(=O)NCCCc2ccc([18F])nc2)cc1Cl [[^18F]OCM50]
- Ki (GSK-3β): 0.28 nM
- standardized uptake value (SUV) [1]: ~ 2.0

SMILES: O=C(Nc1cnccc1-c1ccc(F)cc1)c1ccnc(NC(=O)C2CC2)c1 [Compound 2, 2-(cyclopropanecarboxamido)-N-(4-(4-fluorophenyl)pyridin-3-yl)isonicotinamide]
- Papp ([2]; pH 7.4, Average ± SD): 31.6 ×10⁻⁶ cm/s
- Papp [2, 8]: 36 ± 20 ×10⁻⁶ cm/s
- Permeability coefficient, P, Average ± SD ([2]; pH 7.4): 38 ± 20 (n = 3) 10^–6 cm/s

SMILES: O=C(Nc1cnccc1-c1ccc([18F])nc1)c1ccnc(NC(=O)C2CC2)c1 [[^18F]CNBI]
- metabolic stability [3]: moderate
- brain uptake [4]: poor

SMILES: O=C(Nc1cnccc1-c1ccc(OS(=O)(=O)F)cc1)c1ccnc(NC(=O)C2CC2)c1 [Compound 6, 4-(3-(2-(cyclopropanecarboxamido)isonicotinamido)pyridin-4-yl)phenyl sulfurofluoridate]
- Papp ([2]; pH 7.4): 8.75 ± 3.9 ×10⁻⁶ cm/s
- IC50 (human GSK-3β): 44 ± 2.84 nM
- IC50 (human GSK-3α): 55.7 ± 4.89 nM

SMILES: O=C(Nc1cnccc1-c1ccc(OS(=O)(=O)[18F])cc1)c1ccnc(NC(=O)C2CC2)c1 [[^18F]6]
- Percentage of intact probe ([5]; 30 min): 92.46± 2.61% and 92.46 ± 2.6%
- Percentage of intact probe ([5]; 60 min): 80.13± 14.24%
- Percentage of intact probe ([5]; 120 min): 66.20 ± 6.38% and 66.20 ± 4.93%
- Percentage of intact probe ([6]; 30 min): 87.30 ± 8.99%
- Percentage of intact probe ([6]; 60 min): 81.17± 6.38%
- Percentage of intact probe ([6]; 120 min): 67.01 ± 4.93% and 67.01 ± 6.38%
- Percentage of intact probe ([7]; 0 min): 100 ± 0.0%
- Percentage of intact probe ([7]; 30 min): 100 ± 0.0%
- Percentage of intact probe ([7]; 60 min): 100 ± 0.0%

SMILES: CC(C)NCC(O)COc1cccc2ccccc12 (centres unmarked) [Propranolol HCl, reference compound]
- Papp [2, 8]: 32 ± 1 ×10⁻⁶ cm/s
